Source: US11753407B2, “Compounds for treating spinal muscular atrophy” (PTC Therapeutics, Inc., priority 2012, dated 2023)

Key:
[1] = system: gems (Smn protein nuclear foci) in SMA patient fibroblast cells (GM03813); test: Gems count (Smn-dependent nuclear speckle count) assay; format: cell-based, human; settings: SMA Type 1 patient cells, 48 hours, relative to DMSO (FIG. 9)
From the text: The level of Smn protein directly correlates with the amount of nuclear foci, also known as gems, produced upon staining the cell with a fluorescently labeled anti-Smn antibody (Liu and Dreyfuss, EMBO J., 1996, 15:3555). Gems are multi-protein complexes whose formation is nucleated by the Smn protein and the gems count assay is used to evaluate the level of Smn protein in the cell. As described herein, the gems count assay is used to quantify the level of Smn protein in SMA patient fibroblast cells treated with a test compound.
Protocol: Cells are thawed and incubated in DMEM-10% FBS for 72 hours, then trypsinized, counted and resuspended to 100,000 cells/mL in DMEM-10% FBS. The cell suspension (2 mL) is plated in a 6-well cell culture plate with a sterile cover slip and incubated for 3 to 5 hours. Test compounds are serially diluted 3.16-fold in 100% DMSO to generate a 7-point dilution curve. […]
Cell culture medium is aspirated from the wells containing cover slips and gently washed three times with cold PBS. […] The number of gems is counted per >150 nuclei and % activation is calculated using DMSO and 10 nM bortezomib as controls. For each test compound, the cells are examined at all wavelengths to identify test compounds with inherent fluorescence.

[2] = system: human SMN1 minigene mRNA (SMN1-A minigene) in HEK293H cells; test: Human SMN1 minigene mRNA end-point semi-quantitative RT-PCR splicing assay in cultured cells; format: cell-based; settings: HEK293H cells transfected with SMN1-A minigene, increasing concentrations, 7 hours, end-point RT-PCR (FIG. 17)
From the text: The RT-PCR assay is used to visualize and quantify the levels of the human SMN1 minigene full length and Δ7 mRNA in primary cells and cell lines expressing the human SMN1 minigene construct treated with a test compound.
Using the procedure for the preparation of the SMN2 minigene construct described in Biological Example 1, the SMN1 version of the minigene is generated by replacing the sixth nucleotide of exon 7 (a thymine residue) of the SMN2-A minigene construct to cytosine using site-directed mutagenesis. Thus, similar to the SMN2-A minigene construct, the SMN1 minigene construct has a single adenine residue inserted after nucleic residue 48 of exon 7. The SMN1 minigene construct is referred to as SMN1-A.
Protocol. HEK293H cells (10,000 cells/well/199 μL) were transfected, using FuGENE-6 reagent, in a 96-well plate with 15 ng of the SMN1-A minigene reporter plasmid per well. Cells were incubated for 24 hours following transfection. Test compounds were serially diluted 3.16-fold in 100% DMSO to generate a 7-point concentration curve. A solution of test compound (1 μL, 200× in DMSO) was added to each test well. 1 μL DMSO was added to each control well. The plate was incubated for 7 hours in a cell culture incubator (37° C., 5% CO2, 100% relative humidity). The cells were then lysed in Cells-To-Ct lysis buffer and the lysates were stored at −80° C.
Two SMN spliced mRNA are generated from the SMN1 minigene. The term “SMN1 minigene FL” refers to the first spliced product containing exon 7, corresponding to full length SMN1 mRNA. The term “SMN1 minigene Δ7” refers to the second product lacking exon 7.
SMN minigene FL and Δ7 mRNA are amplified using the primers in Table 11. Primer SMN Forward C (SEQ ID NO. 11) hybridizes to a nucleotide sequence in exon 6 (nucleotide 43 to nucleotide 63), primer SMN Reverse A (SEQ ID NO. 2) hybridizes to a nucleotide sequence in the coding sequence of Firefly luciferase. The combination of these two oligonucleotides detects only SMN1 or SMN2 minigenes (RT-PCR) and will not detect endogenous SMN1 or SMN2 genes. Since the HEK293H cells used in Example 16 were transfected with only the human SMN1 minigene, RT-PCR can visualize and quantify only SMN1 minigene full-length and SMN1 minigene Δ7 mRNA.
To synthesize cDNA, 5 μL of lysate, 4 μL of 5× iScript reaction mix, 1 μL of reverse transcriptase, and 10 μL of water are combined and incubated 5 min at 25° C. followed by 30 min at 42° C., followed by 5 min at 85° C. The cDNA solution is stored at −20° C.
To perform endpoint PCR, 5 μL of cDNA, 0.2 μL of 100 μM forward primer, 0.2 μL of 100 μM reverse primer, and 22.5 μL of polymerase super mix are combined in a 96 well semiskirted PCR plate. PCR is carried out at the following temperatures for the indicated time: Step 1: 94° C. (2 min), Step 2: 94° C. […]

| Compound | gems (nuclear speckle count) [1] | SMN1 minigene FL mRNA [2] | SMN1 minigene Δ7 mRNA [2] |
| --- | --- | --- | --- |
| COc1ccc(-c2cc(=O)n3cc(N4CCNCC4)ccc3n2)cc1OC [Cpd 6, 2-(3,4-dimethoxyphenyl)-7-(piperazin-1-yl)-4H-pyrido[1,2-a]pyrimidin-4-one] | progressively more gems | progressively more SMN1 minigene FL mRNA | less SMN1 minigene Δ7 mRNA |
| Cc1cn2nc(-c3cc(=O)n4cc(N5CCN(C)CC5)ccc4n3)cc2c(C)n1 [Cpd 170, 2-(4,6-dimethylpyrazolo[1,5-a]pyrazin-2-yl)-7-(4-methylpiperazin-1-yl)-4H-pyrido[1,2-a]pyrimidin-4-one] | progressively more gems | progressively more SMN1 minigene FL mRNA | less SMN1 minigene Δ7 mRNA |
